Assays:
Homo sapiens = organism: Homo sapiens; assay: Selectivity index, ratio of IC50 for human CYP11B2 to IC50 for human CYP11B1
[1] = target: T1, Cytochrome P450 11B2, mitochondrial (Homo sapiens, UniProt P19099); assay: Inhibition of human CYP11B2 expressed in hamster V79MZh cells using [1,2-3H]-11-deoxycorticosterone as substrate after 30 mins by HPTLC analysis; assay type: cell-based
T1 sequence (P19099 whole entry): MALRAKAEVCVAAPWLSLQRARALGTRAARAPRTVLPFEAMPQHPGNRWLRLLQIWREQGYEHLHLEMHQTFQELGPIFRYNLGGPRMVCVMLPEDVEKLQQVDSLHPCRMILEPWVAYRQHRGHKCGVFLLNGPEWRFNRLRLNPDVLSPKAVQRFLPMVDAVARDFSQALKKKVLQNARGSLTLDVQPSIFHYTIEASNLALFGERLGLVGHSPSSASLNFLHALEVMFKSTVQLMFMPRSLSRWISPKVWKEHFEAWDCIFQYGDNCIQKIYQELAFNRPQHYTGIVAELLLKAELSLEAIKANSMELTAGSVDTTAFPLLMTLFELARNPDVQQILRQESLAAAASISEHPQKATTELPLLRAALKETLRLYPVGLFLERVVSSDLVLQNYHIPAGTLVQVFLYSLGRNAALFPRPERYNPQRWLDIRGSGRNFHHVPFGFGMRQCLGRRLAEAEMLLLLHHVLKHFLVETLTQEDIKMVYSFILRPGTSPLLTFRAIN

[2] = target: T2, Cytochrome P450 11B1, mitochondrial (Homo sapiens, UniProt P15538); assay: Inhibition of human CYP11B1 expressed in hamster V79MZh cells using [1,2-3H]-11-deoxycorticosterone as substrate after 6 hrs by HPTLC analysis; assay type: cell-based
T2 sequence (P15538 whole entry): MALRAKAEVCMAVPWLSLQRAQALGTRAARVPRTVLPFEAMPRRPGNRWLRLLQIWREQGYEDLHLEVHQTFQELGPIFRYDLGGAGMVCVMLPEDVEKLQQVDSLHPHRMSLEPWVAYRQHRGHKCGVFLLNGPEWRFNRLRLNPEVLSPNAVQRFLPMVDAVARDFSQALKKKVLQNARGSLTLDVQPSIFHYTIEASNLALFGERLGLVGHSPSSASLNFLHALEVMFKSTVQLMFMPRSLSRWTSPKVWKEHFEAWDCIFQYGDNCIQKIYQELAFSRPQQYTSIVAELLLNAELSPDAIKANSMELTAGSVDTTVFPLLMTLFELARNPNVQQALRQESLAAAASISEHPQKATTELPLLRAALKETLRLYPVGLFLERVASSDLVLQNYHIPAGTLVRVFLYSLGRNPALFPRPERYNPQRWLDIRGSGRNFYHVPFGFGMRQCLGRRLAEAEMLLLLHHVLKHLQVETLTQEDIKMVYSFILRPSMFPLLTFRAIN

Compound	Ratio IC50 (Homo sapiens)	IC50 [1] [nM]	IC50 [2] [nM]
O=c1c2ccccc2oc2cccc(Cn3ccnc3)c12	1.2	114	99.1
O=c1c2ccc(Cn3ccnc3)cc2oc2cc(Oc3ccccc3)ccc12	4	26.2	6.5
O=c1c2ccc(Cn3ccnc3)cc2oc2cc(OC3CCCC3)ccc12	3.5	20.3	5.8
O=c1c2ccccc2oc2c(Cn3ccnc3)cccc12	2.9	43.7	15.1
O=c1c2ccc(Cn3ccnc3)cc2oc2cc(OCC3CC3)ccc12	4.7	22.3	4.7
O=c1c2ccc(F)cc2oc2cc(Cn3ccnc3)ccc12	6.7	82	12.3
CC(C)Oc1ccc2c(=O)c3ccc(Cn4ccnc4)cc3oc2c1	4	16.6	4.1
O=c1c2ccccc2oc2cc(Cn3ccnc3)ccc12	4.8	344	70.8
O=c1c2ccc(Cl)cc2oc2cc(Cn3ccnc3)ccc12	14.4	95.3	6.6
O=c1c2ccc(Cn3ccnc3)cc2oc2cc([N+](=O)[O-])ccc12	7	135	19.2
O=c1c2ccc(Br)cc2oc2cc(Cn3ccnc3)ccc12	3.9	44.4	11.4
COc1ccc2c(=O)c3ccc(Cn4ccnc4)cc3oc2c1	2.9	45.4	15.4
O=c1c2ccccc2oc2ccc(Cn3ccnc3)cc12	2.5	1140	463

Reference: ChEMBL document CHEMBL4190308, “Drifting of heme-coordinating group in imidazolylmethylxanthones leading to improved selective inhibition of CYP11B1” (Eur J Med Chem, 2017)
